Reference: patent USRE39130E1 (Bayer Cropscience K.K., priority 1986, dated 2006)

Assays:
[1] = test system: organophosphate-resistant smaller brown planthopper (Laodelphax stiatellus); experiment: Test on planthoppers: smaller brown planthopper (spray on rice plants, kill ratio); assay type: in vivo; conditions: sprayed rice plants, kill ratio two days later, compared with W-1, W-2 and Q-1
Description: (§1) In the same way as above, the kill ratio on white-backed planthopper (Sogatella furcifera) and organophosphate-resistant smaller brown planthopper (Laodelphax stiatellus) was calculated.

[2] = test system: organophosphate-resistant green rice leafhoppers (Nephotettix cincticeps); experiment: Test on organophosphate-resistant green rice leafhoppers (spray on rice plants, kill ratio); conditions: sprayed rice plants, 30 female imagoes, kill ratio two days later; compared with comparison compounds W-1, W-2 and Q 2
Description: Test on organophosphate-resistant green rice leafhoppers (Nephotettix cincticeps)
Preparation of a test chemical
Solvent: 3 parts by weight of xylene
Emulsifier: 1 part by weight of polyoxyethylene alkylphenyl ether
A water dilution of each of the reactive compounds in a predetermined concentration prepared as above was sprayed onto rice plants, about 10 cm tall, grown in pots having a diameter of 12 cm at a rate of 10 ml per pot. […] The pots were placed in a constant-temperature chamber. Two days later, the number of dead insects was examined, and the kill ratio was calculated.

[3] = test system: green peach aphids (Myzus persicae) having resistance to organophosphate and carbamate chemicals; experiment: Test on green peach aphids having resistance to organophosphate and carbamate chemicals (spray on eggplant seedlings, kill ratio); assay type: in vivo; conditions: sprayed eggplant seedlings, 28° C., kill ratio twenty-four hours after spraying; compared with W-1, W-2 and Q-2
Excerpt: Test on green peach aphids (Myzus persicae) having resistance to organophosphate and carbamate chemicals
Bred green peach aphids having resistance to organophsophates and carbamates were inoculated on eggplant (black elongate variety) seedlings, about 20 cm tall, grown in unglazed pots having a diameter of 15 cm at a rate of about 200 per seedling. One day after the inoculation, a water dilution of each of the active compounds in a predetermined concentration prepared as in Example 6 was sprayed in sufficient amounts by means of a spray gun. After the spraying, the pots were left to stand in a greenhouse kept at 28° C. Twenty-four hours after the spraying, the kill ratio was calculated. The above test was carried out through two replicates.

[4] = test system: white-backed planthopper (Sogatella furcifera); experiment: Test on planthoppers: white-backed planthopper (spray on rice plants, kill ratio); assay type: in vivo; conditions: sprayed rice plants, kill ratio two days later, compared with W-1, W-2 and Q-1
Description: as §1

Row | SMILES | efficacy (kill ratio) compared with comparison compounds [1] | efficacy (kill ratio) compared with comparison compounds [2] | efficacy (kill ratio) compared with comparison compounds [3] | efficacy (kill ratio) compared with comparison compounds [4]
1 | N#C/N=C1\NCCN1Cc1ccc(Cl)nc1 [Compound 5, 1-(2-chloro-5-pyridylmethyl)-2-cyanoiminoimidazolidine] | considerably better efficacy | considerably better efficacy | considerably better efficacy | considerably better efficacy
2 | Cc1cnc(CN2CCN/C2=N\C#N)cn1 [Compound 54, 1-(2-methyl-5-pyrazinylmethyl)-2-cyanoiminoimidazolidine] |  | considerably better efficacy |  | 
3 | N#C/N=C1\SCCN1Cc1cnc(Cl)s1 [Compound 69] |  | considerably better efficacy | considerably better efficacy | 
